Assay results published in ChEMBL document CHEMBL1201862, “PubChem BioAssay data set” (2004).
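In this assay, cells in 96-well plates receive the compound at five concentrations for 48 hours. Endpoints are linearly interpolated between the surrounding concentrations. Abbreviation: GI50, concentration required for 50% inhibition of growth.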 The source made the active and inactive calls. Rule as the data show it: active = GI50 up to about 1.1 µM and inactive = higher.

Key:
Experiment in all cases: NCI tumour cell line growth inhibition, 48 h
786-0 = test system: 786-0
A498 = test system: A498
A549 = test system: A549
ACHN = test system: ACHN
BT-549 = test system: BT-549
CAKI-1 = test system: CAKI-1
CCRF-CEM = test system: CCRF-CEM
COLO 205 = test system: COLO 205
DU-145 = test system: DU-145
EKVX = test system: EKVX
HCC 2998 = test system: HCC 2998
HCT-116 = test system: HCT-116
HCT-15 = test system: HCT-15
HL-60 = test system: HL-60
HOP-62 = test system: HOP-62
HOP-92 = test system: HOP-92
HT-29 = test system: HT-29
Hs-578T = test system: Hs-578T
IGROV-1 = test system: IGROV-1
K562 = test system: K562
KM12 = test system: KM12
LOX IMVI = test system: LOX IMVI
M14 = test system: M14
MCF7 = test system: MCF7
MDA-MB-231 = test system: MDA-MB-231
MDA-MB-435 = test system: MDA-MB-435
MDA-N = test system: MDA-N
MOLT-4 = test system: MOLT-4
Malme-3M = test system: Malme-3M
NCI-H226 = test system: NCI-H226
NCI-H23 = test system: NCI-H23
NCI-H460 = test system: NCI-H460
NCI/ADR-RES = test system: NCI/ADR-RES
OVCAR-3 = test system: OVCAR-3
OVCAR-4 = test system: OVCAR-4
OVCAR-5 = test system: OVCAR-5
OVCAR-8 = test system: OVCAR-8
PC-3 = test system: PC-3
RPMI-8226 = test system: RPMI-8226
RXF 393 = test system: RXF 393
SF-268 = test system: SF-268
SF-295 = test system: SF-295
SF-539 = test system: SF-539
SK-MEL-28 = test system: SK-MEL-28
SK-MEL-2 = test system: SK-MEL-2
SK-MEL-5 = test system: SK-MEL-5
SK-OV-3 = test system: SK-OV-3
SN12C = test system: SN12C
SNB-19 = test system: SNB-19
SNB-75 = test system: SNB-75
SR = test system: SR
SW-620 = test system: SW-620
T47D = test system: T47D
TK-10 = test system: TK-10
U-251 = test system: U-251
UACC-257 = test system: UACC-257
UACC-62 = test system: UACC-62
UO-31 = test system: UO-31

CC(C)=CCC[C@@H](C)C1=C(O)C(=O)C(C)=C(Nc2ccccc2Br)C1=O
GI50 (786-0): 13.3 µM (inactive)
GI50 (A498): 7.19 µM (inactive)
GI50 (A549): 17.8 µM (inactive)
GI50 (ACHN): 15.6 µM (inactive)
GI50 (BT-549): 14 µM (inactive)
GI50 (CAKI-1): 18.6 µM (inactive)
GI50 (CCRF-CEM): 3.84 µM (inactive)
GI50 (COLO 205): 15.9 µM (inactive)
GI50 (DU-145): 14.4 µM (inactive)
GI50 (EKVX): 17.3 µM (inactive)
GI50 (HCC 2998): 30.4 µM (inactive)
GI50 (HCT-116): 18.1 µM (inactive)
GI50 (HCT-15): 6.65 µM
GI50 (HL-60): 2.73 µM (inactive)
GI50 (HOP-62): 12.4 µM (inactive)
GI50 (HOP-92): 11.6 µM (inactive)
GI50 (HT-29): 19.6 µM (inactive)
GI50 (Hs-578T): 13.8 µM (inactive)
GI50 (IGROV-1): 8.69 µM (inactive)
GI50 (K562): 10.8 µM (inactive)
GI50 (KM12): 12.5 µM (inactive)
GI50 (LOX IMVI): 11.9 µM (inactive)
GI50 (M14): 15.2 µM (inactive)
GI50 (MCF7): 18.2 µM (inactive)
GI50 (MDA-MB-231): 20.7 µM (inactive)
GI50 (MDA-MB-435): 19.9 µM (inactive)
GI50 (MDA-N): 14.1 µM (inactive)
GI50 (MOLT-4): 4.09 µM (inactive)
GI50 (Malme-3M): 9.4 µM (inactive)
GI50 (NCI-H226): 14.7 µM (inactive)
GI50 (NCI-H23): 9.71 µM (inactive)
GI50 (NCI-H460): 13.4 µM (inactive)
GI50 (NCI/ADR-RES): 3.78 µM (inactive)
GI50 (OVCAR-3): 4.13 µM (inactive)
GI50 (OVCAR-4): 6.52 µM (inactive)
GI50 (OVCAR-5): 20.3 µM (inactive)
GI50 (OVCAR-8): 7.57 µM (inactive)
GI50 (PC-3): 8.51 µM (inactive)
GI50 (RPMI-8226): 8.24 µM (inactive)
GI50 (RXF 393): 14.3 µM (inactive)
GI50 (SF-268): 7.89 µM (inactive)
GI50 (SF-295): 3.85 µM (inactive)
GI50 (SF-539): 8.59 µM (inactive)
GI50 (SK-MEL-28): 14.4 µM (inactive)
GI50 (SK-MEL-2): 13.3 µM (inactive)
GI50 (SK-MEL-5): 11.5 µM (inactive)
GI50 (SK-OV-3): 17.5 µM (inactive)
GI50 (SN12C): 12.5 µM (inactive)
GI50 (SNB-19): 16.4 µM (inactive)
GI50 (SNB-75): 15.4 µM (inactive)
GI50 (SR): 9.66 µM (inactive)
GI50 (SW-620): 17.3 µM (inactive)
GI50 (T47D): 13.8 µM (inactive)
GI50 (TK-10): 22.4 µM (inactive)
GI50 (U-251): 8.91 µM (inactive)
GI50 (UACC-257): 14.9 µM (inactive)
GI50 (UACC-62): 13.3 µM (inactive)
GI50 (UO-31): 11.3 µM (inactive)
